Reference: paper PMC3493683 (Journal of medicinal chemistry, 2012)

Molecular target: recombinant β-secretase (memapsin 2, BACE 1) (Homo sapiens, UniProt P56817)
Assay: BACE 1 inhibitory activity against recombinant β-secretase
Type: biochemical
Conditions: for BACE 1 inhibitory activity (in words): recombinant β-secretase

Sequence of recombinant β-secretase (memapsin 2, BACE 1) (P56817 46-501): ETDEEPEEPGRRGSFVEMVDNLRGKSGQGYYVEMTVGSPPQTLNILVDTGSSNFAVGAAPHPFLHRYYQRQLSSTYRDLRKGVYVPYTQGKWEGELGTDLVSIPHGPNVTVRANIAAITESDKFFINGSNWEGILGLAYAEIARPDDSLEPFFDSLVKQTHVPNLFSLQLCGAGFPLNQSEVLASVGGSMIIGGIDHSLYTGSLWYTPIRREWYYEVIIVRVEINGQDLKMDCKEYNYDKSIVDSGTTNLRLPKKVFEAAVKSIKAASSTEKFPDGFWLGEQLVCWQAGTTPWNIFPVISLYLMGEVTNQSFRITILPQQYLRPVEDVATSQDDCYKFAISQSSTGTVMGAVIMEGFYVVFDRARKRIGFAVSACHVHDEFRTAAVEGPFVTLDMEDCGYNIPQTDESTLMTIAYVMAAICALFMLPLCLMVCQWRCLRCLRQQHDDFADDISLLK

BACE 1 inhibitory activity (in words)	Compound	also measured
	CCC[C@H](O)[C@H](NC[C@H](Cc1ccccc1)NC(=O)c1cc2c3c(c1)c(CC)cn3CC(C)(C)S(=O)(=O)N2C)C(=O)NCC(C)C [Inhibitor 20]	potency enhancement (BACE 1) (over unsubstituted inhibitor 19): > 10 fold
total loss in potency	CC(C)CNC[C@@H](NC[C@H](Cc1ccccc1)NC(=O)c1cc(C(=O)N[C@H](C)c2ccccc2)cc(N(C)S(C)(=O)=O)c1)[C@H](C)O [Inhibitor 9]	
abolished all BACE 1 inhibitory activity	CC(C)CN(C)C(=O)[C@@H](NC[C@H](Cc1ccccc1)NC(=O)c1cc(C(=O)N[C@H](C)c2ccccc2)cc(N(C)S(C)(=O)=O)c1)[C@H](C)O [Inhibitor 7]	
	CCC[C@H](O)[C@H](NC[C@H](Cc1ccccc1)NC(=O)c1cc2c3c(c1)c(CC)cn3CCS(=O)(=O)N2C)C(=O)NCC(C)C [Inhibitor 19]	improvement in the potency (BACE 1) (compared with inhibitor 18): around 18 fold
